“And” between values parts separate entries of the source, which are not always exact repeats. Identical values can stand only once.
Conditions: Crystal

[I][Er]([I])[I] [erbium iodide]
Conditions | vapor or sublimation pressure
871 K | 5.37e-05 kPa
873 K | 5.37e-05 kPa
876 K | 8.51e-05 kPa
884 K | 0.0001072 kPa
886 K | 7.94e-05 kPa and 0.0001047 kPa and 5.75e-05 kPa
889 K | 9.33e-05 kPa
890 K | 0.0001047 kPa
891 K | 0.0001479 kPa
897 K | 0.0001349 kPa
898 K | 0.0001349 kPa and 0.0001905 kPa
903 K | 0.0001622 kPa and 0.0002089 kPa
904 K | 0.0002344 kPa and 0.0002089 kPa
906 K | 0.0001995 kPa
907 K | 0.0001288 kPa
912 K | 0.0002138 kPa and 0.0003162 kPa
913 K | 0.0002692 kPa and 0.000302 kPa
915 K | 0.0002344 kPa
916 K | 0.0001738 kPa
918 K | 0.0002951 kPa and 0.0004074 kPa
923 K | 0.0004169 kPa
924 K | 0.0005129 kPa and 0.0003388 kPa
928 K | 0.0002754 kPa
929 K | 0.0003715 kPa
930 K | 0.000631 kPa and 0.000537 kPa and 0.0005754 kPa
932 K | 0.0004169 kPa
934 K | 0.0002884 kPa
936 K | 0.0006166 kPa and 0.0008318 kPa
937 K | 0.0003631 kPa
939 K | 0.0007586 kPa
940 K | 0.0005623 kPa and 0.000537 kPa and 0.0007586 kPa
943 K | 0.001071 kPa
945 K | 0.0004786 kPa
946 K | 0.0005129 kPa
947 K | 0.0007413 kPa
948 K | 0.000955 kPa
949 K | 0.001349 kPa and 0.001023 kPa and 0.001047 kPa
950 K | 0.0007762 kPa
952 K | 0.000537 kPa
955 K | 0.0006457 kPa
956 K | 0.001698 kPa
957 K | 0.0009772 kPa
958 K | 0.001445 kPa
959 K | 0.00123 kPa
961 K | 0.0007413 kPa
962 K | 0.001698 kPa
963 K | 0.001698 kPa and 0.001202 kPa and 0.0008913 kPa
966 K | 0.00195 kPa and 0.001023 kPa
968 K | 0.00257 kPa
969 K | 0.001514 kPa
971 K | 0.001906 kPa
972 K | 0.00123 kPa
973 K | 0.002455 kPa
974 K | 0.003162 kPa and 0.00257 kPa and 0.001175 kPa
976 K | 0.002042 kPa
978 K | 0.002884 kPa
979 K | 0.002951 kPa
980 K | 0.003802 kPa and 0.001622 kPa
981 K | 0.001778 kPa
982 K | 0.002512 kPa
983 K | 0.003388 kPa
984 K | 0.003548 kPa
986 K | 0.003236 kPa
987 K | 0.00182 kPa
988 K | 0.002089 kPa
989 K | 0.004266 kPa
990 K | 0.003236 kPa
992 K | 0.004266 kPa and 0.004467 kPa
994 K | 0.004786 kPa
995 K | 0.002951 kPa
996 K | 0.002754 kPa
997 K | 0.004169 kPa
999 K | 0.004786 kPa and 0.005754 kPa
1001 K | 0.00631 kPa and 0.002884 kPa
1004 K | 0.006457 kPa and 0.005129 kPa
1006 K | 0.006918 kPa
1007 K | 0.007079 kPa
1008 K | 0.004677 kPa and 0.00389 kPa
1010 K | 0.007943 kPa
1011 K | 0.008318 kPa
1012 K | 0.006761 kPa
1015 K | 0.004571 kPa
1016 K | 0.005129 kPa
1017 K | 0.01 kPa
1018 K | 0.008128 kPa
1019 K | 0.01047 kPa
1026 K | 0.01318 kPa
1030 K | 0.006918 kPa
1036 K | 0.01778 kPa
1045 K | 0.01023 kPa
1046 K | 0.02455 kPa
1059 K | 0.03548 kPa
1070 K | 0.04898 kPa
1082 K | 0.06918 kPa

Source: the NIST ThermoML archive (doi:10.1021/je020220n)
